Source: US20120115877A1, “Facially Amphiphilic Compounds, Compositions, And Uses Thereof In Treating Cancer” (POLYMEDIX, INC., priority 2010, published 2012)
In brackets after ≈: the same amount, converted by molar mass.

Legend:
A549/ATCC = test: NCI-60 screen, Non-Small Cell Lung Cancer; assay type: cell-based, human; conditions: 10 μM
Procedure: (§1) Several compounds were tested at single concentrations (10 μM) against 59 different human tumor cell lines, representing leukemia, melanoma and cancers of the lung, colon, brain, ovary, breast, prostate, and kidney (see, Table 3). The human tumor cell lines of the cancer screening panel were grown in RPMI 1640 medium containing 5% fetal bovine serum and 2 mM L-glutamine. For a typical screening experiment, cells were inoculated into 96 well microtiter plates in 100 μL at plating densities ranging from 5,000 to 40,000 cells/well depending on the doubling time of individual cell lines. After cell inoculation, the microtiter plates were incubated at 37° C., 5% CO2, 95% air and 100% relative humidity for 24 hours prior to addition of the compounds.
(§2) After 24 hours, two plates of each cell line were fixed in situ with TCA, to represent a measurement of the cell population for each cell line at the time of drug addition (Tz). Compounds were solubilized in dimethyl sulfoxide at 400-fold the desired final maximum test concentration and stored frozen prior to use. At the time of drug addition, an aliquot of frozen concentrate was thawed and diluted to twice the desired final maximum test concentration with complete medium containing 50 μg/ml gentamicin. Additional four, 10-fold or ½ log serial dilutions were made to provide a total of five compound concentrations plus control. Aliquots of 100 μl of these different drug dilutions were added to the appropriate microtiter wells already containing 100 μl of medium, resulting in the required final compound concentrations.
(§3) Following drug addition, the plates were incubated for an additional 48 hours at 37° C., 5% CO2, 95% air, and 100% relative humidity. For adherent cells, the assay was terminated by the addition of cold TCA. Cells were fixed in situ by the gentle addition of 50 μl of cold 50% (w/v) TCA (final concentration, 10% TCA) and incubated for 60 minutes at 4° C. The supernatant was discarded, and the plates were washed five times with tap water and air dried. Sulforhodamine B (SRB) solution (100 μl) at 0.4% (w/v) in 1% acetic acid was added to each well, and plates were incubated for 10 minutes at room temperature. After staining, unbound dye was removed by washing five times with 1% acetic acid and the plates were air dried. Bound stain was subsequently solubilized with 10 mM trizma base, and the absorbance was read on an automated plate reader at a wavelength of 515 nm. For suspension cells, the methodology was the same except that the assay was terminated by fixing settled cells at the bottom of the wells by gently adding 50 μl of 80% TCA (final concentration, 16% TCA). Using the seven absorbance measurements (time zero, (Tz), control growth, (C), and test growth in the presence of drug at the five concentration levels (Ti)), the percentage growth was calculated at each of the compound concentrations levels. Percentage growth inhibition was calculated as:
(§4) [(Ti−Tz)/(C−Tz)]×100 for concentrations for which Ti>/=Tz
(§5) [(Ti−Tz)/Tz]×100 for concentrations for which Ti<Tz.
(§6) Three dose response parameters were calculated for each compound. Growth inhibition of 50% (GI50) was calculated from [(Ti−Tz)/(C−Tz)]×100=50, which is the compound concentration resulting in a 50% reduction in the net protein increase (as measured by SRB staining) in control cells during the compound incubation. The compound concentration resulting in total growth inhibition (TGI) was calculated from Ti=Tz. The LC50 (concentration of compound resulting in a 50% reduction in the measured protein at the end of the compound treatment as compared to that at the beginning) indicating a net loss of cells following treatment was calculated from [(Ti−Tz)/Tz]×100=−50. Values were calculated for each of these three parameters if the level of activity was reached; however, if the effect was not reached or was exceeded, the value for that parameter was expressed as greater or less than the maximum or minimum concentration tested.

NCI-H522 = test: NCI-60 screen, Non-Small Cell Lung Cancer; assay type: cell-based, human; conditions: 10 μM
Procedure: as §1, §2, §3, §4, §5, §6

NCI-H23 = test: NCI-60 screen, Non-Small Cell Lung Cancer; assay type: cell-based, human; conditions: 10 μM
Procedure: as §1, §2, §3, §4, §5, §6

786-0 = test: NCI-60 screen, Renal Cancer; assay type: cell-based, human; conditions: 10 μM
Procedure: as §1, §2, §3, §4, §5, §6

[1] = tested on: S. typhymurium ATTC 29631
RPMI-8226 = test: NCI-60 screen, Leukemia; assay type: cell-based, human; conditions: 10 μM
Procedure: as §1, §2, §3, §4, §5, §6

MCF-10A (ATCC CRL-10317) = test: XTT cell viability assay, growth inhibition; assay type: cell-based; conditions: Homo sapiens, MCF10A, non-tumorigenic, 48 hours incubation
Procedure: (§7) Compound A was tested against two human breast cancer cell lines, MCF-7 (ATCC HTB-22) and TMX2-28, and one non-tumorigenic breast cell line, MCF-10A (ATCC CRL-10317). MCF-7 and TMX2-28 cells were grown in DC5 cell growth media while the MCF-10A cells were grown in MEGM, both supplemented with 5% bovine growth serum. The cells were grown using standard techniques. Cell cultures at 50% confluence were harvested with trypsin, seeded onto sterile 96 well plates at a density of 10,000 cells/well and allowed to grow overnight to 50% confluence. Compound A was then added to the growth medium and allowed to further incubate for 48 hours. Viable cells were quantitated using an XTT assay (purchased from Roche).

TMX2-28 = test: XTT cell viability assay, growth inhibition; assay type: cell-based, human
Procedure: as §7

MCF-7 (ATCC HTB-22) = test: XTT cell viability assay, growth inhibition; assay type: cell-based, human
Procedure: as §7

human red blood cells = test: Lysis of human red blood cells (HC50); assay type: cell-based
[2] = tested on: 59 different human tumor cell lines; test: NCI-60 DTP human tumor cell line screen, single concentration, mean over panel; assay type: cell-based; conditions: single concentration 10 μM, mean over 59 human tumor cell lines; for inhibition at 10 µM: Homo sapiens, read-out: mean growth inhibition; for NCI Screen Mean % Growth: 48 hours, SRB
Procedure: as §1, §2, §3, §4, §5

HS 578T = test: NCI-60 screen, Breast Cancer; assay type: cell-based, human; conditions: 10 μM
Procedure: as §1, §2, §3, §4, §5, §6

Row | Structure (SMILES) | Percent Growth (A549/ATCC) | Percent Growth (NCI-H522) | Percent Growth (NCI-H23) | Percent Growth (786-0) | potent cytotoxicity against bacteria (concentration) [1] | Percent Growth (RPMI-8226) | IC90 (MCF-10A (ATCC CRL-10317)) | IC90 (TMX2-28; Homo sapiens, TMX2-28, tumorigenic, 48 hours incubation, XTT) | Selectivity IC90/IC90 MCF10A (TMX2-28; TMX2-28 versus MCF10A) | IC90 (MCF-7 (ATCC HTB-22); Homo sapiens, MCF7, MCF-7, tumorigenic, 48 hours incubation, XTT) | Selectivity IC90/IC90 MCF10A (MCF-7 (ATCC HTB-22); MCF-7 versus MCF10A) | potent cytotoxicity against bacteria (concentration) (E. coli D31) | 50% lysis (HC50) (human red blood cells) | inhibition at 10 µM [2] | NCI Screen Mean % Growth [2] | Percent Growth (HS 578T)
1 | NCCc1cc(Br)cc(C#Cc2cccc(C#Cc3cc(Br)cc(CCN)c3)c2)c1 [Compound A] | −15.97% | −78.21% | 94.81% | −26.78% | 0.8 to 1.6 µg/mL | 9.497% | 12.5 µg/mL (≈ 23.9 µM) | 6.3 µg/mL (≈ 12.1 µM) | 2 | 6.3 µg/mL (≈ 12.1 µM) | 2 | 0.8 to 1.6 µg/mL | 75 µg/mL |  |  | 
2 | N=C(N)NCCCCC(=O)Nc1cc(C(F)(F)F)cc(NC(=O)Nc2ccc(NC(=O)Nc3cc(C(F)(F)F)cc(NC(=O)CCCCNC(=N)N)c3OC3CCNC3)cc2)c1OC1CCNC1 (stereo not drawn) [Compound B] | 49.78% | −11.87% | 77.57% | 58.61% |  | 49.97% |  |  |  |  |  |  |  | > 30% | 56.58% | 
3 | N=C(N)NCCCCC(=O)Nc1cc(C(F)(F)F)cc(NC(=O)c2cc(C(=O)Nc3cc(C(F)(F)F)cc(NC(=O)CCCCNC(=N)N)c3SCCN)ncn2)c1SCCN [Compound C] | 37.26% | −26.87% | 80.24% |  |  |  |  |  |  |  |  |  |  | > 30% | 43.48% | 
4 | NCCCc1cccc(-c2ccc3sc4ccc(-c5cccc(CCCN)c5)cc4c3c2)c1 [Compound D] | 72.71% | 10.75% | 100.6% | 79.48% |  | 62.06% |  |  |  |  |  |  |  | > 30% | 67.91% | 
5 | c1cc(-c2ccc3sc4ccc(-c5ccnc(N6CCNCC6)c5)cc4c3c2)cc(N2CCNCC2)n1 [Compound E] | −77.24% | −93.93% | 52.19% |  |  |  |  |  |  |  |  |  |  |  |  | 
6 | NCCSc1cc(SCCN)c(C(F)(F)F)cc1NC(=O)c1cc(C(=O)Nc2cc(C(F)(F)F)c(SCCN)cc2SCCN)ncn1 [Compound F] | 15.81% | −2.5% | 60.86% | 50.09% |  |  |  |  |  |  |  |  |  | > 30% | 41.28% | 
7 | NCCCc1cccc(-c2ccc3oc4ccc(-c5cccc(CCCN)c5)cc4c3c2)c1 [Compound G] |  | 69.45% | 99.38% | 5.487% |  | 65.28% |  |  |  |  |  |  |  | > 30% | 49.56% | 100.4%
